We go through 39 compounds from US8653075B2, “Therapeutic methods employing substituted piperidines which are CCR3 antagonists” (Boehringer Ingelheim International GmbH, priority 2009, dated 2014).

For the assay, the target named is T1, human chemokine receptor CCR3 (Homo sapiens, UniProt P51677).
T1 construct: expressed in transfected cells; host or cells: K562 cell line (hCCR3-C1 cells), membrane preparation
T1 sequence (P51677 1-355): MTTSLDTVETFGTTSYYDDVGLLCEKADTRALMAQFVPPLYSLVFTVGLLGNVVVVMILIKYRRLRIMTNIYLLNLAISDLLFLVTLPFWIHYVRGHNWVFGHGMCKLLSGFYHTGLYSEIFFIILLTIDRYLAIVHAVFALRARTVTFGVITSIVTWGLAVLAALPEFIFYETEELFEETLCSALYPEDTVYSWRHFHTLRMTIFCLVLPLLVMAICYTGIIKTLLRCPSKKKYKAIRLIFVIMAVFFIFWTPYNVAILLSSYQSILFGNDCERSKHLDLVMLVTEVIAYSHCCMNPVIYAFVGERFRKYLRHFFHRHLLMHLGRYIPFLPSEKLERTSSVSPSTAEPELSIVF
Description: CCR3 receptor binding assay (SPA, 125I-eotaxin-1 displacement, hCCR3-C1 K562 cell membranes). Conditions: human Eotaxin-1 at human CCR3-Rezeptor; for inhibition at 1 µM: 1 μM test compound, read-out: CCR3 % inh @ 1 μM; for Ki: dose range 0.1 to 10000 nM. As to the method:
The CCR3 receptor binding test is based on a K562 cell line (leukemia myelogenic blast cells) transfected with the human chemokine receptor CCR3 (hCCR3-C1 cells). The cell membranes were prepared by disrupting the hCCR3-C1 cells by […]. The preparation was centrifuged at 400 g 4° C. for 30 min. The supernatant was transferred into fresh tubes followed by a second centrifugation at 48000 g, 4° C. for 1 h. The membranes were re-suspended in the SPA incubation buffer (25 mM HEPES, 25 mM MgCl2 6×H2O, 1 mM CaCl2 2×H2O) without bovine serum albumin and homogenized by passing through a single use needle (Terumo, 23Gx1″). The membranes were stored in aliquots at −80° C.
The CCR3 receptor binding assay was performed in a Scintillation Proximity Assay (SPA) design with the radioligand recombinant human ^125Iodine-eotaxin-1. Cell membranes of hCCR3 C1 cells were again homogenized by passing through a single use needle (Terumo, 23Gx1″) and diluted in SPA incubation buffer in suitable concentrations (0.5-10 μg protein/well) in 96 well microtiter plates (1450-514, Perkin Elmer). The SPA assay was set up in the SPA incubation buffer with a final volume of 200 μl and final concentration of 25 mM HEPES, 25 mM MgCl2 6×H2O, 1 mM CaCl2 2×H2O and 0.1% bovine serum albumin. The SPA assay mixture contained 60 μl of the membrane suspension, 80 μl of Wheat Germ Agglutinin coated PVT beads (organic scintillator, GE Healthcare, RPNQ-0001) 0.2 mg/well), 40 μl of recombinant human ^125Jodine-eotaxin-1 (Biotrend), diluted in SPA buffer to a final concentration of 30.000 dpm per well, and 20 μl of the test compound (dissolved in DMSO dilutions). The SPA assay mixture was incubated for 2 h at room temperature. Bound radioactivity was determined with a scintillation counter (Micro Beta “Trilux”, Wallac). Included were controls for total binding (no displacer added, Bo) and non-specific binding (NSB) by adding unlabelled recombinant human Eotaxin-1 (Biotrend, Cat #300-21) or a reference compound.
Determination of the affinity of a test compound was calculated by subtraction of the non-specific binding (NSB) from the total binding (Bo) or the binding in the presence of the test compound (B) at a given compound concentration. […] The Bo-NSB value was set to 0% inhibition.
% inhibition and Ki values are (human Eotaxin-1 at human CCR3-Rezeptor): […]

For `Cc1cc(CN2CCC(N3C(=O)CC[C@@H]3C(=O)Nc3cccc(-c4nnnn4C)c3)CC2)ccc1Cl` [Example 1], the inhibition at 1 µM was determined as 101% and the Ki is 4 nM.

Take `CNC(=O)c1cc(NC(=O)[C@H]2CCC(=O)N2C2CCN(Cc3ccc(Cl)c(C)c3)CC2)cc(C(F)(F)F)c1` [Example 2]: the inhibition at 1 µM came out at 98% and the affinity, expressed as Ki, was 4 nM.

Consider `CCOC(=O)c1nnc(NC(=O)[C@H]2CCC(=O)N2C2CCN(Cc3ccc(Cl)c(C)c3)CC2)s1` [Example 3], for which the inhibition at 1 µM came out at 75% and the Ki came out at 240 nM.

In the case of `CCNS(=O)(=O)c1cccc(NC(=O)[C@H]2CCC(=O)N2C2CCN(Cc3ccc(Cl)c(C)c3)CC2)c1` [Example 4], the inhibition at 1 µM was found to be 99% and the inhibition constant (Ki) came to 5 nM.

For `Cc1cc(CN2CCC(N3C(=O)CC[C@@H]3C(=O)Nc3cccc(-c4nnn(C)n4)c3)CC2)ccc1Cl` [Example 5], the inhibition at 1 µM was 98% and the Ki worked out at 6 nM.

`CCNS(=O)(=O)c1cccc(NC(=O)[C@H]2CCC(=O)N2C2CCN(Cc3ccc(Cl)c(Cl)c3)CC2)c1` [Example 6]: the inhibition at 1 µM is 100% and the Ki was 7 nM.

As to `CNC(=O)c1cc(NC(=O)[C@H]2CCC(=O)N2C2CCN(Cc3ccc(Cl)c(C)c3)CC2)cc(C(=O)NC)c1` [Example 7], the inhibition at 1 µM was determined as 97% and the inhibitory constant (Ki) stood at 7 nM.

For the compound `Cc1cc(CN2CCC(N3C(=O)CC[C@@H]3C(=O)Nc3cccc(N(CC(=O)N(C)C)S(C)(=O)=O)c3)CC2)ccc1Cl` [Example 8], the inhibition at 1 µM stood at 99% and the Ki came out at 9 nM.

For `Cc1cc(CN2CCC(N3C(=O)CC[C@@H]3C(=O)Nc3cccc(-c4ccn(C)n4)c3)CC2)ccc1Cl` [Example 9], the inhibition at 1 µM came out at 95% and the Ki was determined as 12 nM.

Consider `CC(=O)Nc1nc2c(s1)-c1cc(NC(=O)[C@H]3CCC(=O)N3C3CCN(Cc4ccc(Cl)c(C)c4)CC3)ccc1CC2` [Example 10], for which the inhibition at 1 µM was found to be 98% and the Ki turned out to be 16 nM.

In the case of `Cc1cc(CN2CCC(N3C(=O)CC[C@@H]3C(=O)Nc3cc(C4CC4)nn3C)CC2)ccc1Cl` [Example 11], the inhibition at 1 µM stood at 92% and the Ki worked out at 27 nM.

On to `CCNS(=O)(=O)c1cccc(NC(=O)[C@@H]2CCC(=O)N2C2CCN(Cc3ccc(Cl)c(C)c3)CC2)c1` [Example 12], for which the inhibition at 1 µM was found to be 84% and the affinity, expressed as Ki, was 88 nM.

Regarding `Cc1cc(CN2CCC(N3C(=O)CC[C@@H]3C(=O)N3CCc4ccccc43)CC2)ccc1Cl` [Example 13], the inhibition at 1 µM is 71% and affinity was put at a Ki of 373 nM.

`Cc1cc(CN2CCC(N3C(=O)CC[C@@H]3C(=O)N[C@H]3CCN(C(=O)OC(C)(C)C)C3)CC2)ccc1Cl` [Example 14]: the inhibition at 1 µM worked out at 60% and the Ki came out at 540 nM.

Turning to `Cc1cc(CN2CCC(N3C(=O)CC[C@@H]3C(=O)N3CCCc4ccccc43)CC2)ccc1Cl` [Example 15], the inhibition at 1 µM worked out at 38% and the affinity corresponds to a Ki of 1110 nM.

Turning to `Cc1cc(CN2CCC(N3C(=O)CC[C@@H]3C(=O)Nc3cccc(-c4nc[nH]n4)c3)CC2)ccc1Cl` [Example 16], the inhibition at 1 µM turned out to be 98% and the affinity corresponds to a Ki of 20 nM.

As to `Cc1cc(CN2CCC(N3C(=O)CC[C@@H]3C(=O)Nc3cccc(N4CCNC4=O)c3)CC2)ccc1Cl` [Example 17], the inhibition at 1 µM worked out at 100% and affinity was put at a Ki of 5 nM.

`Cc1cc(CN2CCC(N3C(=O)CC[C@@H]3C(=O)Nc3cccc(N4CCN(C)C4=O)c3)CC2)ccc1Cl` [Example 18]: the inhibition at 1 µM was found to be 96% and the Ki worked out at 7 nM.

For `Cc1cc(CN2CCC(N3C(=O)CC[C@@H]3C(=O)Nc3cccc(N4CCCCC4)c3)CC2)ccc1Cl` [Example 19], the inhibition at 1 µM was 98% and the Ki was found to be 7 nM.

Turning to `CCN(C)S(=O)(=O)c1cccc(NC(=O)[C@H]2CCC(=O)N2C2CCN(Cc3ccc(Cl)c(C)c3)CC2)c1` [Example 20], the inhibition at 1 µM was found to be 97% and affinity was put at a Ki of 9 nM.

Consider `CCS(=O)(=O)N(CC(=O)N(C)C)c1cccc(NC(=O)[C@H]2CCC(=O)N2C2CCN(Cc3ccc(Cl)c(C)c3)CC2)c1` [Example 21], for which the inhibition at 1 µM was found to be 96% and the inhibition constant (Ki) worked out at 11 nM.

Consider `Cc1cc(CN2CCC(N3C(=O)CC[C@@H]3C(=O)Nc3cccc(S(=O)(=O)N4CCCCC4)c3)CC2)ccc1Cl` [Example 22], for which the inhibition at 1 µM was 84% and the inhibitory constant (Ki) worked out at 13 nM.

On to `Cc1cc(CN2CCC(N3C(=O)CC[C@H]3C(=O)Nc3ccc4c(c3)CCC(=O)N4)CC2)ccc1Cl` [Example 23], for which the inhibition at 1 µM worked out at 95% and the Ki was determined as 18 nM.

In the case of `Cc1nccc(-c2cccc(NC(=O)[C@H]3CCC(=O)N3C3CCN(Cc4ccc(Cl)c(C)c4)CC3)c2)n1` [Example 24], the inhibition at 1 µM was determined as 99% and the affinity, expressed as Ki, was 22 nM.

In the case of `Cc1cc(CN2CCC(N3C(=O)CC[C@@H]3C(=O)Nc3cccc(S(=O)(=O)CCO)c3)CC2)ccc1Cl` [Example 26], the inhibition at 1 µM worked out at 97% and the affinity corresponds to a Ki of 27 nM.

For the compound `Cc1cc(CN2CCC(N3C(=O)CC[C@@H]3C(=O)Nc3cccc(-c4c[nH]cn4)c3)CC2)ccc1Cl` [Example 27], the inhibition at 1 µM came to 96% and the affinity corresponds to a Ki of 28 nM.

Regarding `Cc1cc(CN2CCC(N3C(=O)CC[C@@H]3C(=O)Nc3cccc(-c4cnco4)c3)CC2)ccc1Cl` [Example 28], the inhibition at 1 µM came out at 97% and the Ki worked out at 29 nM.

Regarding `Cc1cc(CN2CCC(N3C(=O)CC[C@@H]3C(=O)NC3CCC(NS(=O)(=O)c4ccccc4)CC3)CC2)ccc1Cl` (stereo partly drawn) [Example 29], the inhibition at 1 µM turned out to be 94% and the Ki turned out to be 31 nM.

`Cc1cc(CN2CCC(N3C(=O)CC[C@@H]3C(=O)Nc3ccc4[nH]ncc4c3)CC2)ccc1Cl` [Example 31]: the inhibition at 1 µM worked out at 93% and the Ki worked out at 50 nM.

`Cc1cc(CN2CCC(N3C(=O)CC[C@@H]3C(=O)Nc3cc(C(N)=O)cc(C(N)=O)c3)CC2)ccc1Cl` [Example 32]: the inhibition at 1 µM was determined as 82% and the inhibition constant Ki turned out to be 145 nM.

On to `Cc1cc(CN2CCC(N3C(=O)CC[C@@H]3C(=O)Nc3ccc(N4CCCOC4=O)c(C)c3)CC2)ccc1Cl` [Example 33], for which the inhibition at 1 µM was 83% and the Ki was 150 nM.

As to `COc1cc(NC(=O)[C@H]2CCC(=O)N2C2CCN(Cc3ccc(Cl)c(C)c3)CC2)ccc1N1CCCCC1=O` [Example 34], the inhibition at 1 µM came out at 80% and the Ki turned out to be 152 nM.

Turning to `Cc1cc(CN2CCC(N3C(=O)CC[C@@H]3C(=O)Nc3cccnc3)CC2)ccc1Cl` [Example 36], the inhibition at 1 µM was found to be 80% and the affinity corresponds to a Ki of 159 nM.

For the compound `CNC(=O)N1CCc2cc(NC(=O)[C@H]3CCC(=O)N3C3CCN(Cc4ccc(Cl)c(C)c4)CC3)ccc21` [Example 37], the inhibition at 1 µM is 80% and the affinity corresponds to a Ki of 175 nM.

As for `Cc1cc(CN2CCC(N3C(=O)CC[C@H]3C(=O)NCc3ccccc3OC(F)F)CC2)ccc1Cl` [Example 38], the inhibition at 1 µM was found to be 78% and affinity was put at a Ki of 211 nM.

`Cc1cc(CN2CCC(N3C(=O)CC[C@@H]3C(=O)Nc3cccc(CNC(=O)NC4CCCCC4)c3)CC2)ccc1Cl` [Example 39]: the inhibition at 1 µM is 80% and the Ki came to 227 nM.

In the case of `Cc1cccc(NC(=O)[C@@H]2CCC(=O)N2C2CCN(Cc3ccc(Cl)c(C)c3)CC2)n1` [Example 40], the inhibition at 1 µM amounted to 75% and the Ki is 229 nM.

As for `CCn1nccc1CNC(=O)[C@H]1CCC(=O)N1C1CCN(Cc2ccc(Cl)c(C)c2)CC1` [Example 41], the inhibition at 1 µM was determined as 66% and the Ki was determined as 395 nM.

For `Cc1cc(CN2CCC(N3C(=O)CC[C@H]3C(=O)Nc3n[nH]c4ccccc34)CC2)ccc1Cl` [Example 42], the inhibition at 1 µM is 63% and the Ki stood at 482 nM.

By Ki is commonly meant a measure of affinity in units of concentration, obtained from inhibition or displacement. Low readings indicate a stronger hold on the target, high ones a looser hold on the target.
